Data set [1] deals with T1, CYP26 (Homo sapiens, UniProt O43174).
T1 sequence (O43174 1-497): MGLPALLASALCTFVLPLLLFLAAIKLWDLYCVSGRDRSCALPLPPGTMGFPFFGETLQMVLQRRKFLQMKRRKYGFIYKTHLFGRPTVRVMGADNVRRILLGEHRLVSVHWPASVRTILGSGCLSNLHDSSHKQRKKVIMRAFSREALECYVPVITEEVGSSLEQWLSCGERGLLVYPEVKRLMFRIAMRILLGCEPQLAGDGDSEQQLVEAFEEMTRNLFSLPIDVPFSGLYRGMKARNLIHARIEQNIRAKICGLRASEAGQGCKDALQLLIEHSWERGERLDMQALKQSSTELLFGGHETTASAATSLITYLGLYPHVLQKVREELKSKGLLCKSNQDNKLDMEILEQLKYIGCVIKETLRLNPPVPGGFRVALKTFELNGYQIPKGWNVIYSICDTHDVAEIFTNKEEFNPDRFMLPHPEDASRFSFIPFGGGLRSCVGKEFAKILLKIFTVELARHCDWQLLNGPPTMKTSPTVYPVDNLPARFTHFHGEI
Particulars: human recombinant enzyme; read-out: Km reported for the human recombinant enzyme; cited from earlier work.

Another data set addresses T2, CYP19 (Homo sapiens, UniProt P11511).
T2 construct: purchased BD Gentest 456260
T2 sequence (P11511 1-503): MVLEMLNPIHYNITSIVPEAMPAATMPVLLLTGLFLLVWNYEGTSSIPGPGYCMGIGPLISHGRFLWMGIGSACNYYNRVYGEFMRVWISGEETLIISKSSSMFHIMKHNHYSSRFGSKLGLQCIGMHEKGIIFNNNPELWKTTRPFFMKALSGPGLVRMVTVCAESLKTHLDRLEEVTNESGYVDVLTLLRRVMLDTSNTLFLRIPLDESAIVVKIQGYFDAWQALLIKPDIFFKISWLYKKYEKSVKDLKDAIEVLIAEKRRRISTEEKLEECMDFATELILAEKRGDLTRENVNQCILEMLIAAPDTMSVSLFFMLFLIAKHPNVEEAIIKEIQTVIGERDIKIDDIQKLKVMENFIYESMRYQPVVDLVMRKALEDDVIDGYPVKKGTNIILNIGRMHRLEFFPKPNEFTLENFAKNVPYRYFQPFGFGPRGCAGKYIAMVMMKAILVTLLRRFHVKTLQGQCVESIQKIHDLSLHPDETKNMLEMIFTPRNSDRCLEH
The data set is described as follows: CYP19 inhibition: commercially available recombinant enzyme and assay kit. In kind it is biochemical. The procedure:
(§1) Serum Testosterone and PSA and Tumor Testosterone Analysis. Tumor tissue obtained from mice will be homogenized in phosphate buffer (pH 7.4, 0.1 M) and homogenates centrifuged at 2000 g for 20 min. Testosterone concentrations in the serum and in the clear tissue homogenate supernatant will be determined with the ELISA kit from R&D Systems (Catalog # KGR010). Serum PSA concentrations will be measured using a PSA ELISA kit with a serum dilution according to the manufacturers instructions. • c. Breast cancer. To test the efficacy of compounds embodied herein against breast cancer, nude mice carrying human breast cancer lines that are estrogen receptor and Aromatase positive will be used. Cells will be grown in vitro and 2 million will be inoculated in Matrigel (50:50 volume ratio of cells to Matrigel). Cells will be distributed by s.c. injection at the right and left flanks or at the orthotopic sitest in 6 to 8 week old athymic nude mice (BALB/c strain) or severe combined immunodeficient mice under anesthesia. Animals will be treated with compound for 4 weeks, at which point animals will be sacrificed and collect blood samples and tumor tissue for the determination of serum and tumor estrogen levels. Tumors will be excised and a portion will be fixed in formalin for subsequent histochemical and immuno-histochemical analysis. The remainder will be snap frozen in liquid nitrogen and stored at −80° C. • 12. CYP26 inhibition activity. A substrate depletion assay for ATRA metabolism in mouse microsomes is used. […] The assay is run in a 100 μL reaction volume and stopped with an equal volume of methanol. […] CYP17 inhibition assay: In vitro assays for CYP17 17α-hydroxylase and C17,20-lyase activity, assays using rat and dog testis microsomes and ELISA kits from commercial vendors for the detection of formed products are employed. Incubation of rat testis microsomes with the substrate progesterone (P4) results, through the CYP17 17α-hydroxylase and C17,20-lyase activities, in a marked production of androstenedione (AD) in a time and enzyme-concentration dependent manner. […] In another control, microsomes isolated from rat livers, which are known to express very little or no CYP17, are shown to be devoid of this activity. Assays are also used that determine the activity of 17α-hydroxylase activity using P4 as a substrate and detecting HOP4 as a product (using dog testis microsomes) and the activity of C17,20-lyase by using HOP4 as a substrate and AD as a product (rat testis microsomes). • 14. CYP19 inhibition assay: For in vitro assays of CYP19 aromatase activity, commercially available CYP19 enzyme preparations (e.g. BD Gentest Supersomes Catalog #456260) and assay kits (e.g. BD Gentest Catalog #459520) are employed according to the manufacturers instructions.
Selectivity for other P450 enzymes. To assess the selectivity of compounds embodied herein, activity was evaluated first against CYP3A4 and CYP19 using commercially available recombinant enzymes and assay kits. To calculate a selectivity factor, the IC50 for a particular P450 enzyme was divided by the IC50 in the CYP17 combination assay.

Data set [2] has as its target T3, CYP26 (Mus musculus, UniProt O55127).
T3 construct: tissue Xenotech; host or cells: liver microsomes of ATRA-treated mice
T3 sequence (O55127 1-497): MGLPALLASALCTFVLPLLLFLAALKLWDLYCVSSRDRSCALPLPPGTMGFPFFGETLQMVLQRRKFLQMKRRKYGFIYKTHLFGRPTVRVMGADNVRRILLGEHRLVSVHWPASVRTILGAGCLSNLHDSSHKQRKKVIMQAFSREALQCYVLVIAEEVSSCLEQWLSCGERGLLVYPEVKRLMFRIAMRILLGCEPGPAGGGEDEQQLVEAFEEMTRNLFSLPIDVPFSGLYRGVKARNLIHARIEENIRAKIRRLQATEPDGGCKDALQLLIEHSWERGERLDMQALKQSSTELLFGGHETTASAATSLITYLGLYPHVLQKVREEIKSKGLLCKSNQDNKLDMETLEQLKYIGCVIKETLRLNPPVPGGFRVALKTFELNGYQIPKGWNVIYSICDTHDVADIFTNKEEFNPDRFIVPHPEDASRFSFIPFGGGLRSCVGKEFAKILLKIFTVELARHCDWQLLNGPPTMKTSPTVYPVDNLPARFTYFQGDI
Put plainly: CYP26 inhibition: substrate depletion assay for ATRA metabolism in mouse microsomes. Format: biochemical. On the procedure: as §1
CYP26 inhibition. […] The assay was run in a 100 μL reaction volume and stopped with an equal volume of methanol. […] Other compounds of formula (I) are similarly potent, for example with an IC50 of 1.6 nM.

In a further data set the target is T4, CYP17 (Rattus norvegicus, UniProt P11715).
T4 construct: using rat and dog testis microsomes and ELISA kits from commercial vendors; from tissue; host or cells: rat testis microsomes
T4 sequence (P11715 1-507): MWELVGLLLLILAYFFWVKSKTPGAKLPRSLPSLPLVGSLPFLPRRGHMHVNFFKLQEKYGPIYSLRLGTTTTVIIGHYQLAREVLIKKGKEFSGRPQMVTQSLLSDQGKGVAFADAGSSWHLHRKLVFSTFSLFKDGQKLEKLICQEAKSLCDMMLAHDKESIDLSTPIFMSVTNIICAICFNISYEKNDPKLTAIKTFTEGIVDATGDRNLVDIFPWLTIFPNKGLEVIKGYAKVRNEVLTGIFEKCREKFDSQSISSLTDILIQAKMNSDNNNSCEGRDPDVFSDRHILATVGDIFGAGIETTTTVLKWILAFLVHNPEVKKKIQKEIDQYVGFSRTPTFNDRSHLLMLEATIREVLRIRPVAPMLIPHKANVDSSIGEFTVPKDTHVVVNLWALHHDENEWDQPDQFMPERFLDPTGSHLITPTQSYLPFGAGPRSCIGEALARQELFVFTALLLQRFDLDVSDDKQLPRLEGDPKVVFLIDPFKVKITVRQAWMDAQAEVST
Put plainly: CYP17 inhibition: 17α hydroxylase and C17,20 lyase activity in testis microsomes, ELISA detection. Format: biochemical. As to conditions: which microsome assay (rat or dog testis) not specified. On the procedure:
Serum Testosterone and PSA and Tumor Testosterone Analysis. Tumor tissue obtained from mice will be homogenized in phosphate buffer (pH 7.4, 0.1 M) and homogenates centrifuged at 2000 g for 20 min. Testosterone concentrations in the serum and in the clear tissue homogenate supernatant will be determined with the ELISA kit from R&D Systems (Catalog # KGR010). Serum PSA concentrations will be measured using a PSA ELISA kit with a serum dilution according to the manufacturers instructions. • c. Breast cancer. To test the efficacy of compounds embodied herein against breast cancer, nude mice carrying human breast cancer lines that are estrogen receptor and Aromatase positive will be used. Cells will be grown in vitro and 2 million will be inoculated in Matrigel (50:50 volume ratio of cells to Matrigel). Cells will be distributed by s.c. injection at the right and left flanks or at the orthotopic sitest in 6 to 8 week old athymic nude mice (BALB/c strain) or severe combined immunodeficient mice under anesthesia. Animals will be treated with compound for 4 weeks, at which point animals will be sacrificed and collect blood samples and tumor tissue for the determination of serum and tumor estrogen levels. Tumors will be excised and a portion will be fixed in formalin for subsequent histochemical and immuno-histochemical analysis. The remainder will be snap frozen in liquid nitrogen and stored at −80° C. • 12. CYP26 inhibition activity. […] The assay is run in a 100 μL reaction volume and stopped with an equal volume of methanol. […] CYP17 inhibition assay: In vitro assays for CYP17 17α-hydroxylase and C17,20-lyase activity, assays using rat and dog testis microsomes and ELISA kits from commercial vendors for the detection of formed products are employed. […] Assays are also used that determine the activity of 17α-hydroxylase activity using P4 as a substrate and detecting HOP4 as a product (using dog testis microsomes) and the activity of C17,20-lyase by using HOP4 as a substrate and AD as a product (rat testis microsomes). • 14.
CYP17 inhibition. In vitro assays for CYP17 17α hydroxylase and C17,20 lyase activity using rat and dog testis microsomes and ELISA kits from commercial vendors for the detection of formed products were employed. […] Assays were also used that determine the activity of 17α hydroxylase activity using P4 as a substrate and detecting HOP4 as a product (using dog testis microsomes) and the activity of C17,20 lyase by using HOP4 as a substrate and AD as a product (rat testis microsomes).

Substrate in data set [3]: CC1=C(/C=C/C(C)=C/C=C/C(C)=C/C(=O)O)C(C)(C)CCC1
Put plainly: cells, lysate or membranes named. As to conditions: other: induced mouse microsomes; pH 7.4.

The Km is the concentration of substrate that gives half-maximal velocity. Regarding `CC1=C(/C=C/C(C)=C/C=C/C(C)=C/C(=O)O)C(C)(C)CCC1` [ATRA, all-trans retinoic acid], the Km at CYP26 [1] was ~0.01 µM.
The IC50 is the concentration at which inhibition is half-maximal. Consider `CCC(C(c1ccc2nc(N)sc2c1)n1ccnc1)N(C)C` (centres unmarked) [Example 1, 6-(2-(Dimethylamino)-1-(1H-imidazol-1-yl)butyl)benzo[d]thiazol-2-amine], for which the IC50 on CYP19 is < 1000 nM; on CYP26 [2], < 1000 nM; against CYP17, < 5000 nM.
For the molecule `CCC(C(c1ccc2nc(Br)sc2c1)n1ccnc1)N(C)C` (centres unmarked) [Example 8, 1-(2-Bromobenzo[d]thiazol-6-yl)-1-(1H-imidazol-1-yl)-N,N-dimethylbutan-2-amine], the results for the IC50 at CYP19, on CYP26 [2] and against CYP17 were < 1000 nM, < 1000 nM and < 5000 nM, respectively.
As for `CCC(CC)C(c1ccc2nc(Br)sc2c1)n1ccnc1` (centres unmarked) [Example 28, 2-bromo-6-(2-ethyl-1-(1H-imidazol-1-yl)butyl)benzo[d]thiazole], the IC50 on CYP19 was < 1000 nM; against CYP17, < 5000 nM.
As to `CCC(C(c1ccc2nc(N)sc2c1)n1ccnc1)N(C)CC` (centres unmarked) [Example 32, 6-(2-(Ethyl(methyl)amino)-1-(1H-imidazol-1-yl)butyl)benzo[d]thiazol-2-amine], the concentration for half-maximal inhibition (IC50) on CYP19 is < 1000 nM; at CYP17, < 5000 nM.
The like results for `CCC(C(c1ccc2nc(Br)sc2c1)n1ccnc1)N(C)CC` (centres unmarked) [Example 36, 1-(2-Bromobenzo[d]thiazol-6-yl)-N-ethyl-1-(1H-imidazol-1-yl)-N-methylbutan-2-amine] were, in that order, < 1000 nM and < 5000 nM.

B1: CYP26 (Mus musculus) (protein)
chain: T3 sequence (O55127 1-497)
For the molecule B1, in data set [3], the Km was 0.004 µM.

The values above are taken from patent publication US10414760B2, “Cytochrome P450 inhibitors and uses thereof” (ANGION BIOMEDICA CORP., priority 2016, dated 2019).
